Consider one compound from US20150183802A1, “TRICYCLIC SULFONAMIDE DERIVATIVES” (NOVARTIS AG, priority 2013, published 2015).

For this assay, the target named is T1, hNav1.7 channels (Homo sapiens, UniProt Q15858).
T1 construct: host or cells: HEK293
The experiment in a line: hNav1.7 channel in vitro patch-clamp assay. Type of assay: cell-based. Particulars: stable HEK293 cell line expressing hNav1.7; whole cell patch-clamp. (The patch-clamp technique gives a direct electrical read-out from membranes.)

T1 sequence (Q15858 whole entry): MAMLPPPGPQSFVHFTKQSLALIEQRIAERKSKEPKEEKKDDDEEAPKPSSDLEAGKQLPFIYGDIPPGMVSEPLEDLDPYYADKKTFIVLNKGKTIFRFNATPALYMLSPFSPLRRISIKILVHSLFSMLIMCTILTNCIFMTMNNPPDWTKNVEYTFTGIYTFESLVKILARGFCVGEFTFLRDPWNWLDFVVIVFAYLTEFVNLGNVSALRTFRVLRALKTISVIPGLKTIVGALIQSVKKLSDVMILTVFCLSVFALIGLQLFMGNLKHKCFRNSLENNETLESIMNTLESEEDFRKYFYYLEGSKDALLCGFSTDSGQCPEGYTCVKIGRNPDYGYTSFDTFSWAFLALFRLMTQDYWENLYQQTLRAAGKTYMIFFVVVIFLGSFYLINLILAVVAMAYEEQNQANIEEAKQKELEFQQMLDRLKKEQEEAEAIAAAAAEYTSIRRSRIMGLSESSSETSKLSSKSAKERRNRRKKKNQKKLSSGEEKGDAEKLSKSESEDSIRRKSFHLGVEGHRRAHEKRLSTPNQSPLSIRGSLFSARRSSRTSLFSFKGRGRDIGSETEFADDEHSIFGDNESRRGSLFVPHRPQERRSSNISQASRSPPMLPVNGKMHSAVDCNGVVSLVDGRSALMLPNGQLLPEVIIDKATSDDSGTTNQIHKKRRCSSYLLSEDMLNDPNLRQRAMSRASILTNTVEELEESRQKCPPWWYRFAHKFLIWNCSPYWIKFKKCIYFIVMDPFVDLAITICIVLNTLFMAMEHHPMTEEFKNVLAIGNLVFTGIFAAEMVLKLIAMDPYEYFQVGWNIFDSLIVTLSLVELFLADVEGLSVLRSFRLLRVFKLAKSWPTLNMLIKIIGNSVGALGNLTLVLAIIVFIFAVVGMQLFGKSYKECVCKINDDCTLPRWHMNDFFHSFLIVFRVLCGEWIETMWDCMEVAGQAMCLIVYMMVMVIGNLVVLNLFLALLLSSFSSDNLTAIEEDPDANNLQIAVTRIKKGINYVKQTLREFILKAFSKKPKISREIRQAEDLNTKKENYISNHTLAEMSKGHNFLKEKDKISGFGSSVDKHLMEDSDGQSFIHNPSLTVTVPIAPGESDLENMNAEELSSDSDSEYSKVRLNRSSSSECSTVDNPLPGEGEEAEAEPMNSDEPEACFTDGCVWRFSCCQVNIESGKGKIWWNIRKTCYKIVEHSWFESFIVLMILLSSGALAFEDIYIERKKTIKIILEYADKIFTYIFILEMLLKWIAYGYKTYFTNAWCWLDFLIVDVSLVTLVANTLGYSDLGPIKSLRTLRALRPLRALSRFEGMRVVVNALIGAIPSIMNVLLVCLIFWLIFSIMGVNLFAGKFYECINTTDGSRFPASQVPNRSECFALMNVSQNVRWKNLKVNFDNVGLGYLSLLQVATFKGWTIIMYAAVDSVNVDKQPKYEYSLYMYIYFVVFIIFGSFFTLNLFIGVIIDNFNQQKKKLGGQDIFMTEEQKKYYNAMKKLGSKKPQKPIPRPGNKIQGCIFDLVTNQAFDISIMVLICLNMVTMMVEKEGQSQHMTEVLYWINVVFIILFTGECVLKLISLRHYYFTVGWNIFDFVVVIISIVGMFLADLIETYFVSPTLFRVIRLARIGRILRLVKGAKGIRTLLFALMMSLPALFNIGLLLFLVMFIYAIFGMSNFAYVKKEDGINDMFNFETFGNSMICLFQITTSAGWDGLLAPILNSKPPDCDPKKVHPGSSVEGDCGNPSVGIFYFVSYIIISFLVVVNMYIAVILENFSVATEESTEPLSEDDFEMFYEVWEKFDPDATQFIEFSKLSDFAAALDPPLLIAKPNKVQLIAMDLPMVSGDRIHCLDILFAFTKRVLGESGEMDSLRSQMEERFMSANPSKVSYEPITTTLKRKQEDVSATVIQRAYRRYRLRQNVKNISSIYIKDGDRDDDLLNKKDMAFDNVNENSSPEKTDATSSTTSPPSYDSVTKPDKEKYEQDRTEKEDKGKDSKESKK

In the case of `CC(C)COc1ncc(N2C(=O)C3(CC3)c3cc4c(NS(=O)(=O)N5CCC5)noc4cc32)cc1Cl` [N-(7′-(5-chloro-6-isobutoxypyridin-3-yl)-6′-oxo-6′,7′-dihydrospiro[cyclopropane-1,5′-isoxazolo[4,5-f]indol]-3′-yl)azetidine-1-sulfonamide], the “activity in the hNav1.7 patch-clamp assay (in words)” value was “did not show any activity”.
